The subject of one data set is B. abortus. The class given is cell-based.
Data set [1] has as its system M. tuberculosis. Type of data set: cell-based.
The subject of a further data set is E. coli. The class given is cell-based.
Data set [2] concerns S. aureus clinical isolate that forms biofilms. Type of data set: cell-based.
In another data set the test system is S. aureus. The class given is cell-based.
Data set [3] relates to M. tuberculosis. The note with it: after 10 days; cited from earlier work.
The next data set concerns S. flexneri. The class given is cell-based.
The next data set relates to S. enteritidis. Type of data set: cell-based.
A further data set relates to C. elegans. The note with it: in vivo, 50 µM.

Values after ≈ are worked out from the molar mass of the structure shown. Where only a bound is given, the exact number is not on record here.

Regarding `NC[C@H]1O[C@H](O[C@H]2[C@H](O)[C@@H](O[C@H]3O[C@H](CO)[C@@H](O)[C@H](N)[C@H]3O)[C@H](N)C[C@@H]2N)[C@H](O)[C@@H](O)[C@@H]1O` [kanamycin], the MIC was 4 µM (≈ 1.94 µg/mL) in the data set on B. abortus; 2 µM (≈ 0.969 µg/mL) in the data set on M. tuberculosis [1]; 2 µM (≈ 0.969 µg/mL) against E. coli; 4 µM (≈ 1.94 µg/mL) in data set [2]; 2 µM (≈ 0.969 µg/mL) with S. aureus; 8 µM (≈ 3.88 µg/mL) with M. smegmatis. The MIC stood at 2 µM (≈ 0.969 µg/mL) against S. flexneri and 16 µM (≈ 7.75 µg/mL) against S. enteritidis. The “reduction in M. tuberculosis levels within THP-1 macrophages” value in the data set on M. tuberculosis [3] is “about 50%”. In addition, the “viability of C. elegans” value in the data set with C. elegans is on record as over 90%.
Take `CC[C@H](C)[C@H](NC(=O)CN)C(=O)NCC(=O)N[C@@H](C)C(=O)N[C@H](C(=O)N[C@@H](CC(C)C)C(=O)N[C@@H](CCCCN)C(=O)N[C@H](C(=O)N[C@@H](CC(C)C)C(=O)N[C@H](C(=O)N[C@H](C(=O)NCC(=O)N[C@@H](CC(C)C)C(=O)N1CCC[C@H]1C(=O)N[C@@H](C)C(=O)N[C@@H](CC(C)C)C(=O)N[C@H](C(=O)N[C@@H](CO)C(=O)N[C@@H](Cc1c[nH]c2ccccc12)C(=O)N[C@H](C(=O)N[C@@H](CCCCN)C(=O)N[C@@H](CCCNC(=N)N)C(=O)N[C@@H](CCCCN)C(=O)N[C@@H](CCCNC(=N)N)C(=O)N[C@@H](CCC(N)=O)C(=O)N[C@@H](CCC(N)=O)C(N)=O)[C@@H](C)CC)[C@@H](C)CC)[C@@H](C)O)[C@@H](C)O)C(C)C)C(C)C` [melittin]: the “viability of C. elegans” value in the data set with C. elegans is given as “no live worms”.

These data come from article PMC5482217 (Journal of the American Chemical Society, 2016).
